Measurements: PubChem BioAssay AID623861 (Sanford-Burnham Center for Chemical Genomics, 2012)
pEC50: −log10 of the molar value. Calls of active or inactive are those of the source.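 How the source made its calls: active means compounds whose EC50 for boosting single-cell stem cell survival is at or below a set limit; inactive means the rest.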

Each molecule was assayed on human iPSC single-cell survival, ATP luminescence (assay: human iPSC survival promotion after dissociation – cell-based, luminescence, dose response (AID 623861)).

Compound	EC50	pEC50
COc1ccccc1Sc1nc(-c2ccccn2)ncc1OC	40.8 µM (inactive)	–
CN(Cc1ccc(C(F)(F)F)cc1)C(=O)[C@H]1O[C@@H](n2cnc3c(N)ncnc32)[C@H](O)[C@@H]1O	26.1 µM (inactive)	–
O=c1c(Cl)c(Cl)cnn1Cc1nnc(-c2ccccc2Br)o1	–	5.08
CCS(=O)(=O)c1ncc(Cl)c(C(=O)Nc2ccc(S(=O)(=O)N(C)c3ccccc3)cc2)n1	> 80 µM (inactive)	–
O=C(COC(=O)c1ccccc1C(=O)c1ccc(Cl)c([N+](=O)[O-])c1)NC1CC1	> 80 µM (inactive)	–
COc1ccccc1CC(=O)Nc1ccc(-c2noc(COc3cccc(C)c3C)n2)cc1	> 80 µM (inactive)	–
OC(c1ccc(Cl)cc1)c1ncc(-c2cccc(C(F)(F)F)c2)[nH]1 (stereo not drawn)	> 80 µM (inactive)	–
Cn1c(=O)cc(OCCCC(=O)Nc2cccc(Cl)c2)c2ccccc21	> 80 µM (inactive)	–
COC(=O)[C@]1(Cc2ccccc2)N[C@H](CN(C)C(=O)Nc2ccccc2)[C@@H]2C(=O)N(C)C(=O)[C@@H]21	> 80 µM (inactive)	–
Cn1nc(-c2ccccc2)c(C(O)c2ccccc2C(F)(F)F)c1Cl (stereo not drawn)	> 80 µM (inactive)	–
C=C1C(=O)O[C@@H]2C[C@@H](C)[C@@H]3C=CC(=O)[C@@]3(C)[C@@H](O)[C@H]12	–	5.10
Cc1ccc(-n2nc(C)c3c(C)cc(=O)[nH]c32)cc1	> 80 µM (inactive)	–
CCOC(=O)C(=O)/C(=C\N(C)C)c1onc(-c2c(F)cccc2Cl)c1C(=O)OC	> 80 µM (inactive)	–
O=C(NC1CCCCC1)N(Cc1nc2ccccc2c(=O)[nH]1)C1CCCCC1	> 80 µM (inactive)	–
O=C(NCCCN1CCCCCC1)C1CC(=O)N(CCc2ccccc2)C1 (stereo not drawn)	> 80 µM (inactive)	–
c1ccc(CN2CCN(c3nc(NCc4ccco4)c4ccccc4n3)CC2)cc1	–	5.98
O=C(Nc1nc(-c2ccncc2)cs1)C1COc2ccccc2O1 (stereo not drawn)	–	5.50
Oc1ccc(-c2onc(C(F)(F)F)c2-c2cscn2)c(O)c1	> 80 µM (inactive)	–
Cc1c(C(=O)NCc2ccccc2C(F)(F)F)sc(=O)n1Cc1ccc2ccccc2c1	> 80 µM (inactive)	–
O=C(NCC1CC1)c1ccc(-c2cn[nH]c2)c2ccoc12	–	4.88
CCCOC(=O)Oc1ccc2c(=O)c(Oc3cc(C)cc(C)c3)coc2c1	> 80 µM (inactive)	–
CNc1nc(Cl)nc(NC(C)(C)C)n1	> 80 µM (inactive)	–
CCN1C/C(=C/c2cccc([N+](=O)[O-])c2)C(=O)/C(=C/c2cccc([N+](=O)[O-])c2)C1	–	5.05
C=C1[C@@H](C)[C@H]2[C@H](Cc3ccccc3)NC(=O)[C@]23OC(=O)/C=C/[C@H](O)CCC[C@@H](C)C/C=C/[C@H]3[C@@H]1O	21.7 µM (inactive)	–

Compound	EC50	pEC50
CC(C)C12CN3CC(C(C)C)(CN(C1)C3c1ccccc1O)C2=O (stereo not drawn)	> 80 µM (inactive)	–
O=c1cc(-c2ccccc2)nc2nc(SCc3ccccc3)[nH]n12	> 80 µM (inactive)	–
NC(=O)CC(NC(=O)c1ccccc1)C(=O)O (stereo not drawn)	> 80 µM (inactive)	–
Cc1ccc2c(COC(=O)C3=COCCO3)cc(=O)oc2c1	> 80 µM (inactive)	–
Cc1ccc(S(=O)(=O)N[C@H](C(=O)OCC(=O)NC(=O)NCc2ccco2)C(C)C)cc1	> 80 µM (inactive)	–
COc1ccc2c(c1)c(=O)c(C(=O)c1ccc(Cl)cc1)cn2CC(=O)Nc1ccc(F)cc1	–	4.81
CN(C(=O)COC(=O)c1nc(Cl)c(Cl)c(Cl)c1Cl)C1CCS(=O)(=O)C1 (stereo not drawn)	31.1 µM (inactive)	–
CCCOC(=O)C1NC(=O)N2C(C(=O)OCCC)C(C)(C)S[C@H]12 (stereo partly drawn)	> 80 µM (inactive)	–
CC(OC(=O)c1ccc(S(=O)(=O)N2CCCCC2)cc1)C(=O)Nc1ccc(C(N)=O)cc1 (stereo not drawn)	–	5.06
CCCCCCC[C@@H](C/C=C/CCC(=O)N(C)C/C(=C/Cl)C/C(=C\C(=O)N1CC(OC)=CC1=O)OC)OC	–	5.95
C=C(C)[C@@]12OC3(c4ccccc4)O[C@@H]1C1[C@@H]4O[C@]4(CO)[C@@H](O)[C@]4(O)C(=O)C(C)=C[C@H]4[C@@]1(O3)[C@H](C)[C@H]2OC(=O)/C=C/C=C/c1ccccc1 (stereo partly drawn)	–	> 6.81
COCCNC(=O)c1ccc(-c2cn[nH]c2)c2ccoc12	–	4.95
O=C(Nc1ccncc1)c1cc(S(=O)(=O)N2CCCC2)ccc1Cl	20.5 µM (inactive)	–
CCn1c(Cl)c(C=O)s/c1=N\S(=O)(=O)c1ccccc1	24.8 µM (inactive)	–
CCOC1=C2[C@H](c3ccc(C)cc3)N(S(=O)(=O)c3ccc(C)cc3)C[C@H]2n2c(=O)n(-c3ccccc3)c(=O)n2C1	> 80 µM (inactive)	–
CCCc1ccc(C(=O)N2CCN(c3ccccc3OCC)CC2)cc1	> 80 µM (inactive)	–
CCOC(=O)c1ccc(NC(=O)c2nc(S(=O)(=O)Cc3ccccc3)ncc2Cl)cc1	> 80 µM (inactive)	–
O=C(NCCCN1CCCCCC1)c1ccc(CS(=O)(=O)Cc2ccccc2F)o1	> 80 µM (inactive)	–
CCS(=O)(=O)c1ncc(Cl)c(C(=O)Nc2ccc(S(=O)(=O)N3CCCC(C)C3)cc2)n1 (stereo not drawn)	> 80 µM (inactive)	–
O=C(O)c1cc(C(=O)C2CC2)c[nH]1	> 80 µM (inactive)	–
CCc1c(C(=O)Nc2ccc(OC)cc2)[nH]c(C)c1C(C)=O	> 80 µM (inactive)	–
CCOCCCNC(=O)/C(C#N)=C/c1ccc([N+](=O)[O-])o1	53.1 µM (inactive)	–
CN(Cc1ccccc1)C(=O)CN1CCN(S(=O)(=O)c2ccccc2F)CC1	> 80 µM (inactive)	–
C[C@@H]1CN([C@@H](C)CO)C(=O)c2cc(Br)cnc2O[C@H]1CN(C)C(=O)C1CC1	> 80 µM (inactive)	–
